According to patent EP0714404B1, “ANTI-INFLAMMATORY PEPTIDES” (CURATIVE TECHNOLOGIES, INC., priority 1993, dated 1995):
Read-outs that look alike come from different tables or passages of the source. Residues, ends and D or L forms follow the SMILES beside them.

Key:
Salmonella = Salmonella reverse mutation assay; format: cell-based; conditions: 100-5,000 µg/ml, with or without rat liver microsomal enzyme activation
Source text: The mutagenic potential of CT-112 (SEQ. ID NO: 1) has been assessed.

[1] = tested on: Arachidonic Acid Induced Inflammation; format: in vivo, mice; conditions: for % Reduction of Ear Swelling / Ear Thickness: sc minipump
Description: The anti-inflammatory properties of CT-112 (SEQ. ID NO: 1) were assessed using a standardized assay for anti-inflammatory activity, i.e., the mouse ear model in which arachidonic acid (AA) is used to induce an inflammatory reaction (Young et al., 1984, J. Invest. Dermatol. 82:367-371; Doherty, et al., 1988, J. Invest. Dermatol. 91:298-302).
Female mice (C57BL/6UAF, Charles River Breeding Laboratories, approximately 15-18 g) were obtained and acclimated for 2 weeks prior to use. The animals were approximately 14 weeks old at the start of the study.
To prepare minipumps for implantation, CT-112 (SEQ. ID NO: 1) was dissolved in PBS. The material was loaded into Alzet minipumps set to deliver 0.05 (5 animals), 0.1 (10 animals), 1 (10 animals), or 2.5 (5 animals) mg of CT-112 (SEQ. ID NO: 1) per animal per day. Minipumps for implantation into control animals contained only PBS. As a positive control, one set of 10 mice received 100 mg/kg of phenidone, a potent 5-lipoxygenase inhibitor which acts as an anti-inflammatory agent, 15 min prior to challenge with AA.
For subcutaneous implantation of minipumps, animals were anesthetized with Ketamine/Xylazine. The Ketamine (Aveco Lot #440140) was injected at 80 mg/kg and the Xylazine (Rugby Laboratories Lot #26040-B) at 16 mg/kg and the Alzet pumps were implanted subcutaneously in the dorsothoracic area. Animals were allowed to recover and then housed and given food and water ad libitum for 5 days.
On the sixth day following pump implantation, 0.01 ml of AA was applied to the inner and outer surfaces of the right ear by means of an automatic microliter pipette. One hr following AA application, the mice were sacrificed and ear thickness was measured with a Mitutoyo No. 7300 Gauge Caliper. The left ears were also measured as an internal control.
Mice were implanted with Alzet mini-pumps set to deliver 60 mg/kg/day for either 7, 3, or 1 days. A separate group of 5 mice received 3 intraperitoneal injections of CT-112 (60 mg/kg/injection) at 24, 1 and 0.25 hr prior to AA challenge. CT-112 (SEQ. ID NO: 1) was prepared for injection by dissolving the compound in Dulbecco's PBS to give a final CT-112 (SEQ. ID NO: 1) concentration of 5 mg/ml. The control mice were implanted with Alzet minipumps that delivered PBS for 7 days. The AA challenge was the same as described supra in Example 7.
Administration of CT-112 (SEQ. ID NO: 1) (60 mg/kg/injection) via multiple intraperitoneal injections was performed at the following times prior to AA challenge: • a) 6, 3, 1 and 0.25 hr; • b) 3, 1 and 0.25 hr; or • c) 1 and 0.25 hr.
In addition, the effect of a single administration of CT-112 (SEQ. ID NO: 1) (60 mg/kg) by intraperitoneal injection was performed at either 1 or 3 hr prior to AA challenge. Control mice had Alzet minipumps implanted to deliver PBS for 7 days prior to AA challenge. The AA challenge was the same as described supra in Example 7. The results of the multiple dosing regimens and the 1 hr and 3 hr single dosing regimens were compared to the anti-inflammatory activity of CT-112 (SEQ. ID NO: 1) delivered via Alzet minipump set to deliver 60 mg/kg/day for 7 days using 5 animals per treatment.
In a separate experiment, the effect of multiple intraperitoneal injections of CT-112 (SEQ. ID NO: 1) at either 6, 3, 1 and 0.25 hr, or 16, 3, 1 and 0.25 hr prior to AA challenge was assessed. The results of both multi-dosing regimens were compared to both phenidone (100 mg/kg administered 15 min prior to AA challenge) and CT-112 (SEQ. ID NO: 1) administered via Alzet mini-pump (60 mg/kg/day for 7 days). For this latter study, the number of animals receiving the single injection of CT-112 (SEQ. ID NO: 1) was increased from 5 to 10.
Administration to mice of CT-112 (SEQ. ID NO: 1) (60 mg/kg/injection) via multiple subcutaneous injections prior to AA challenge was performed at: • a) 6, 3, 1 and 0.25 hr; • b) 3, 1 and 0.25 hr; or • c) 1 and 0.25 hr. […]

[2] = 0.05 mg/animal/day, AA on sixth day

CC(C)[C@H](NC(=O)[C@H](CCC(N)=O)NC(=O)[C@H](CO)NC(=O)[C@@H](NC(=O)[C@@H](N)[C@@H](C)O)[C@@H](C)O)C(=O)N[C@@H](CCCNC(=N)N)C(=O)N1CCC[C@H]1C(=O)N[C@@H](CCCNC(=N)N)C(=O)O [CT-112, Thr-Thr-Ser-Gln-Val-Arg-Pro-Arg] (H-TTSQVRPR-OH)
number of revertants (histidine independent growth) (Salmonella): did not cause an increase
% Reduction of Ear Swelling [1, 2]: 43.1%
Ear Thickness [1, 2]: 0.01577 ± 0.00155 (5) in
% Reduction of Ear Swelling ([1]; 0.1 mg/animal/day): 43.1%
Ear Thickness ([1]; 0.1 mg/animal/day): 0.01577 ± 0.00191 (10) in
% Reduction of Ear Swelling ([1]; 1.0 mg/animal/day): 89.0%
Ear Thickness ([1]; 1.0 mg/animal/day): 0.01128 ± 0.00291 (10) in
% Reduction of Ear Swelling ([1]; 2.5 mg/animal/day): 95.6%
Ear Thickness ([1]; 2.5 mg/animal/day): 0.0106 ± 0.00175 (5) in
Thickness Difference (Left-Right) ([1]; Table III, 1-day pump, 60 mg/kg/day): -0.00074 ± 0.00119 in
Thickness Difference (Left-Right) ([1]; Table III, 3-day pump, 60 mg/kg/day): -0.00115 ± 0.00058 in
Thickness Difference (Left-Right) ([1]; Table III, 7-day pump, 60 mg/kg/day): -0.00051 ± 0.00116 in
Thickness Difference (Left-Right) ([1]; Table III, ip 60 mg/kg/injection at 24, 1 and 0.25 hr prior to AA): 0.00226 ± 0.00124 in
Thickness Difference (Left-Right) ([1]; Table IV, 7-day pump, 60 mg/kg/day): 0.00033 ± 0.00065 in
Thickness Difference (Left-Right) ([1]; Table IV, ip 60 mg/kg/injection at 1 and 0.25 hr prior to AA): 0.00192 ± 0.00148 in
Thickness Difference (Left-Right) ([1]; Table IV, ip 60 mg/kg/injection at 3, 1 and 0.25 hr prior to AA): 0.00141 ± 0.00138 in
Thickness Difference (Left-Right) ([1]; Table IV, ip 60 mg/kg/injection at 6, 3, 1 and 0.25 hr prior to AA): 0.00144 ± 0.00126 in
Thickness Difference (Left-Right) ([1]; Table IV, single ip 60 mg/kg 1 hr prior to AA): 0.00308 ± 0.00189 in
Thickness Difference (Left-Right) ([1]; Table IV, single ip 60 mg/kg 3 hr prior to AA): 0.00116 ± 0.001 in
Thickness Difference (Left-Right) ([1]; Table V, 7-day pump, 60 mg/kg/day): -0.00003 ± 0.0012(5) in
Thickness Difference (Left-Right) ([1]; Table V, ip injections at 6, 3, 1 and 0.25 hr prior to AA): 0.00249 ± 0.0017(10) in
Thickness Difference (Left-Right) ([1]; Table V, ip injections at 16, 3, 1 and 0.25 hr prior to AA): 0.00283 ± 0.00218(10) in
Thickness Difference (Left-Right) ([1]; Table VI, 7-day pump, 60 mg/kg/day): 0.00083 ± 0.00084 in
Thickness Difference (Left-Right) ([1]; Table VI, sc 60 mg/kg/injection at 1 and 0.25 hr prior to AA): 0.00195 ± 0.00131 in
Thickness Difference (Left-Right) ([1]; Table VI, sc 60 mg/kg/injection at 3, 1 and 0.25 hr prior to AA): 0.00193 ± 0.0007 in
Thickness Difference (Left-Right) ([1]; Table VI, sc 60 mg/kg/injection at 6, 3, 1 and 0.25 hr prior to AA): 0.00147 ± 0.00041 in
Thickness Difference (Left-Right) ([1]; Table VI, single sc 60 mg/kg 1 hr prior to AA): 0.00174 ± 0.00128 in
Thickness Difference (Left-Right) ([1]; Table VI, single sc 60 mg/kg 3 hr prior to AA): 0.00213 ± 0.00089 in
Thickness Difference (Left-Right) ([1]; Table VII, 3 day pump, 60 mg/kg/day): 0.00127 ± 0.00128 in
Thickness Difference (Left-Right) ([1]; Table VII, single ip 3 hr prior to AA): 0.00242 ± 0.00187 in
Thickness Difference (Left-Right) ([1]; Table VII, single sc 1 hr prior to AA): 0.00214 ± 0.00122 in
Thickness Difference (Left-Right) ([1]; Table VII, single sc 3 hr prior to AA): 0.00243 ± 0.00107 in
Thickness Difference (Left-Right) ([1]; Table VII, single sc 6 hr prior to AA): 0.00117 ± 0.00066 in
Thickness Difference (Left-Right) ([1]; Table VII, single sc -.25 (hr) prior to AA): 0.00252 ± 0.00128 in
Thickness Difference (Left-Right) ([1]; Table VIII, 3 day pump, 60 mg/kg/day): 0.00058 ± 0.00086 in
Thickness Difference (Left-Right) ([1]; Table VIII, po 200 mg/kg/gavage at 1 and 0.25 hr prior to AA): 0.00241 ± 0.00124 in
Thickness Difference (Left-Right) ([1]; Table VIII, po 200 mg/kg/gavage at 3, 1 and 0.25 hr prior to AA): 0.0028 ± 0.00114 in
Thickness Difference (Left-Right) ([1]; Table VIII, po 200 mg/kg/gavage at 6, 3, 1 and 0.25 hr prior to AA): 0.00134 ± 0.00257 in
Thickness Difference (Left-Right) ([1]; Table VIII, single gavage 200 mg/kg 1 hr prior to AA): 0.00139 ± 0.00122 in
Thickness Difference (Left-Right) ([1]; Table VIII, single gavage 200 mg/kg 3 hr prior to AA): 0.00031 ± 0.00198 in
Thickness Difference (Left-Right) ([1]; Table XI, 6 mg/kg/day, minipump, AA three days after implantation): 0.00381 ± 0.00066 in
Thickness Difference (Left-Right) ([1]; Table XI, 60 mg/kg/day, minipump, AA three days after implantation): 0.00095 ± 0.00064 in
Thickness Difference (Left-Right) ([1]; Table XIII, 24 hr via Alzet pump, 60 mg/kg/day): 0.00132 ± 0.00086 in
Difference Treatment (Left - Right) ([1]; Table XIV, 24 hr via Alzet pump, 60 mg/kg/day): 0.00134 ± 0.00044 in
Thickness Difference (Left-Right) ([1]; Table XV, 24 hr via Alzet pump, 60 mg/kg/day): 0.00154 ± 0.00092 in
% Inhibition of Inflammation ([1]; mouse, in vivo, 6 mg/kg/day): 40.8%
% Inhibition of Inflammation ([1]; mouse, in vivo, 60 mg/kg, 3 h): 78.5%
% Inhibition of Inflammation ([1]; mouse, in vivo, 200 mg/kg, 1 h): 72.3%
% Inhibition of Inflammation ([1]; mouse, in vivo, 200 mg/kg, 3 h): 93.8%
% Inhibition of Inflammation ([1]; mouse, in vivo, ip, 60 mg/kg): 62%
% Inhibition of Inflammation ([1]; mouse, in vivo, ip, 3 h): 37.2%
inhibition of the inflammatory process ([1]; mouse, in vivo, po, 200 mg/kg): 52-94%
% Inhibition of Inflammation ([1]; mouse, in vivo, sc): 34.7%
% Inhibition of Inflammation ([1]; mouse, in vivo, sc, 60 mg/kg, 1 h): 71.8%
% Inhibition of Inflammation ([1]; mouse, in vivo, sc, 60 mg/kg, 3 h): 65.5%
% Inhibition of Inflammation ([1]; mouse, in vivo, sc, 1 h): 44.5%
% Inhibition of Inflammation ([1]; mouse, in vivo, sc, 3 h): 36.9%
% Inhibition of Inflammation ([1]; mouse, in vivo, sc, 6 h): 69.6%
reduction in inflammation ([1]; multiple IP injections at 6, 3, 1 and 0.25 hr or 16, 3, 1 and 0.25 hr prior to AA): 56-61%
duration of activity ([1]; subcutaneous injection, 60 mg/kg): greater than 6 hr
inhibition of the inflammatory process ([1]; subcutaneous injection, all multi-dosing and single-dosing regimens, 60 mg/kg/injection): approximately 70%
